In article PMC6539231, “4,5-Diaryl 3(2H)Furanones: Anti-Inflammatory Activity and Influence on Cancer Growth” (Molecules, 2019):
“Also recorded” adds a separate entry of the source. Read-outs that look alike come from different tables or passages of the source.

Key:
[1] = test system: carrageenan mice paw oedema; test: Carrageenin-induced mouse paw edema; format: in vivo, mice (AKR); conditions: for inhibition in vivo at 0.1 µmol/g: Mus musculus, ip, read-out: CPE, %; for anti-inflammatory activity, reference compounds: dose not given
Method: From the data of Table 7 it is obvious that anti-inflammatory activity of alkylsulfones and sulfoxides of furan-3(2H)-ones, including annelated derivatives are very similar.
The anti-inflammatory activity of compounds was performed using the carrageenan mice paw oedema assay. Animal of both sex (AKR), with exception of pregnant females were housed under standard conditions, receiving only water during the experimental period. […] The detailed description of the whole experiment reported previously. All the biological experiments were carried out in full compliance with the European Convention for the Protection of Vertebrate Animals used for Experimental or Other Scientific Purposes (ETS NO 123, Strasbourg, 03/18/1986): Strasbourg (France). European Treaty Series, № 123, March 18, 1986. 11 P. The project identification code and date of approval is 350880/3468 of 15-12-2014, University of Thessaloniki.

[2] = target: T1, human recombinant COX-2 (Homo sapiens, UniProt P35354); test: In vitro COX-2 inhibition (Cayman COX Inhibitor Screening Assay kit); format: biochemical; conditions: for % Inhibition (COX-2): Compound concentration 50 μΜ, arachidonic acid 0.1 μM; for IC50: read-out: Experimental IC50 COX-2
T1 construct: purchased Cayman Chemical Co., Ann Arbor, MI, USA
T1 sequence (P35354 18-604): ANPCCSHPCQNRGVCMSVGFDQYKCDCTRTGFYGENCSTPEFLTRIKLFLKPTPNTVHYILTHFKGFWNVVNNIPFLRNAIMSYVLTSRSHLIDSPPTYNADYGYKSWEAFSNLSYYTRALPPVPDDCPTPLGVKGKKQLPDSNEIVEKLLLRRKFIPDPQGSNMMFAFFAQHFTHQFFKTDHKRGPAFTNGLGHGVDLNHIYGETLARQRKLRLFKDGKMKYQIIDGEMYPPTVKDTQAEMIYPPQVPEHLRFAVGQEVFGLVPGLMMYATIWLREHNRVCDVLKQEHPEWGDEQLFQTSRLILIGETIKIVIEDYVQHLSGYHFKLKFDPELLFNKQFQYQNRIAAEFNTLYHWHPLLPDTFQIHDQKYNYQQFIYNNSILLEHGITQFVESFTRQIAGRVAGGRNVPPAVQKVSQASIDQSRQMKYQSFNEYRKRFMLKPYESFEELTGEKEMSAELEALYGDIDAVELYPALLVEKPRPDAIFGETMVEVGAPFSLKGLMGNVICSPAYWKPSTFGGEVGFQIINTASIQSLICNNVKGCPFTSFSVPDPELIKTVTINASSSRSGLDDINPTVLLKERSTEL
Method: (§1) The COX-1 and COX-2 activities of the compounds were measured using ovine COX-1 and human recombinant COX-2 enzymes included in the “COX Inhibitor Screening Assay” kit provided by Cayman (Cayman Chemical Co., Ann Arbor, MI, USA) as reported previously

[3] = target: T2, ovine COX-1 (Ovis aries, UniProt P05979); test: In vitro COX-1 inhibition (Cayman COX Inhibitor Screening Assay kit); format: biochemical; conditions: for % Inhibition (COX-1): Compound concentration 50 μΜ, arachidonic acid 0.1 μM; for IC50: read-out: Experimental IC50 COX-1
T2 construct: purchased Cayman Chemical Co., Ann Arbor, MI, USA
T2 sequence (P05979 25-600): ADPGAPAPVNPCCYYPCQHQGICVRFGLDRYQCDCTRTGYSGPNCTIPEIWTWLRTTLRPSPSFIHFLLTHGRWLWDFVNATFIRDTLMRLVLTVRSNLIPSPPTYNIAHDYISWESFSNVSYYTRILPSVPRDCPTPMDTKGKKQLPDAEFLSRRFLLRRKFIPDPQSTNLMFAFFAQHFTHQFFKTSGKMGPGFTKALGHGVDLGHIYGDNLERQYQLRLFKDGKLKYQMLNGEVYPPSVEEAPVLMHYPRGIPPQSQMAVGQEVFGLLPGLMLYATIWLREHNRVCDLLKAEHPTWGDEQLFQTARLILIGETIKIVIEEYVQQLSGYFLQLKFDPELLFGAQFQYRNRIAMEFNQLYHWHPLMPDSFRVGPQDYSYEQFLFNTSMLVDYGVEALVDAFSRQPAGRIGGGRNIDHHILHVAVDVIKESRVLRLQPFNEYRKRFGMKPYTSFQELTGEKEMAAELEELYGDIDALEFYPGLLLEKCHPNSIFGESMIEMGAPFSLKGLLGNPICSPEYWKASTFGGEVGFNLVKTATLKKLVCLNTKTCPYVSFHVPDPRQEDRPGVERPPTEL
Method: as §1

[4] = test system: MCF-7 cells; test: Growth inhibition assay, MCF-7 cells; format: cell-based, human; conditions: 48 h exposure
Method: (§2) The cells were grown in the presence of each of the selected compounds as well as of the two well-known anti-neoplastic drugs gefitinib and 5-fluorouracil.
(§3) Each cell culture was treated appropriately, ensuring that DMSO concentration was kept below ≤ 0.2% (v/v) after every dilution. Cells were seeded in 24-well plates, at an initial density of 5 × 10^4 cells/mL. […] Cells were allowed to grow for additional 48 h before being harvested by trypsinization and subsequently counted (cell density; number of cells/mL) using a hemocytometer (Neubauer counting chamber) and optical microscopy. Cell growth was expressed as a percentage relative to that for the untreated control culture (only cells and medium, CTL).

[5] = test system: MCF-7 cells; test: Combination (synergy) growth assay in MCF-7 cells, Combination Index; format: cell-based, human; conditions: MCF-7, 48 h; for Combination Effect with 5-fluorouracil / CI, combination with 5-fluorouracil: + 0.3 μM 5-fu; for % Cell Growth, combination with 5-fluorouracil: + 0.3 μM 5-fu (21.3 μM 1h, 2.9 μM 1g, 3.8 μM x-1, 29 μM cel); for CI, combination with 5-fluorouracil / CI, combination with gefitinib: CI <1 synergy, >1 antagonism; for Combination Effect with gefitinib / CI, combination with gefitinib: + 70 μM gef; for % Cell Growth, combination with gefitinib: + 70 μM gef (27.5 μM 1h, 10 μM 1g, 10 μM x-1, 29 μM cel)
Method: In addition, exposure of the MCF-7 cells to each of the compounds in combination with each one of the two anti-neoplastic drugs was performed in order to study the synergistic effect of the compounds. The results are shown in Table 9 and Figure 5 and Figure 6.

[6] = test system: MCF-7 cells; test: as above; format: cell-based, human; conditions: MCF-7, 48 h
[7] = test system: HSC-3 cells; test: Growth inhibition assay, HSC-3 cells
Method: as §2, §3

[8] = Dose 0.1 µmol/g, intraperitoneally, simultaneously with carrageenin

`C[S+]([O-])c1ccc(C2=C(c3ccccc3)OC(C)(C)C2=O)cc1` (stereo not drawn) [1b, 2,2-Dimethyl-4-[4′-(methylsulfinyl)phenyl]-5-phenylfuran-3(2H)-one] showed an inhibition in vivo at 0.1 µmol/g [1, 8] of 47%.

With `CC1(C)OC(c2ccccc2)=C(c2ccc(S(C)(=O)=O)cc2)C1=O` [1c, 2,2-Dimethyl-4-[4′-(methylsulfonyl)phenyl]-5-phenylfuran-3(2H)-one] the “% Inhibition (COX-2)” value [2] was 0%, the “% Inhibition (COX-1)” value [3] was 0% and the inhibition in vivo at 0.1 µmol/g [1, 8] was 50.2%.

With `C[S+]([O-])c1ccc(C2=C(c3ccc(Cl)cc3)OC(C)(C)C2=O)cc1` (stereo not drawn) [1j] the “% Inhibition (COX-2)” value [2] was 0%, the “% Inhibition (COX-1)” value [3] was 0% and the inhibition in vivo at 0.1 µmol/g [1, 8] was 54%.

In the case of `CC1(C)OC(c2ccc(Cl)cc2)=C(c2ccc(S(C)(=O)=O)cc2)C1=O` [1k, 5-(4′-Chlorophenyl)-2,2-dimethyl-4-[4′-(methylsulfonyl)phenyl]-furan-3(2H)-one], the “% Inhibition (COX-2)” value [2] is reported as 6%, the IC50 [2] is reported as greater than 50 µM and the melting point is reported as 223 to 225 °C. The “% Inhibition (COX-1)” value [3] was 80%, the IC50 [3] was 29 µM and the inhibition in vivo at 0.1 µmol/g [1, 8] was 50.6%.

In the case of `C[S+]([O-])c1ccc(C2=C(c3cccc(Cl)c3)OC(C)(C)C2=O)cc1` (stereo not drawn) [1n, 5-(3′-Chlorophenyl)-2,2-dimethyl-4-[4′-(methylsulfinyl)phenyl]-furan-3(2H)-one], the inhibition in vivo at 0.1 µmol/g [1, 8] is reported as 51%.

Molecule `CC1(C)OC(c2cccc(Cl)c2)=C(c2ccc(S(C)(=O)=O)cc2)C1=O` [1o, 5-(3′-Chlorophenyl)-2,2-dimethyl-4-[4′-(methylsulfonyl)phenyl]-furan-3(2H)-one] has an IC50 [2] of 71 µM, a melting point of 219 to 221 °C and an IC50 [3] of 22 µM. For the same molecule, the inhibition in vivo at 0.1 µmol/g [1, 8] was 50.7%.

Molecule `CC1(C)OC(c2ccccc2)=C(c2ccc(S(N)(=O)=O)cc2)C1=O` [1q, 5-(4′-Phenyl)-2,2-dimethyl-4-[4′-(aminosulfonyl)phenyl]-furan-3(2H)-one] has a melting point of 158 to 160 °C and an inhibition in vivo at 0.1 µmol/g [1, 8] of 38%.

`CC1(C)OC(c2cccc(Cl)c2)=C(c2ccc(S(N)(=O)=O)cc2)C1=O` [1u, 5-(3′-Chlorophenyl)-2,2-dimethyl-4-[4′-(aminosulfonyl)phenyl]-furan-3(2H)-one] showed a melting point of 198 to 200 °C.

For `CC1(C)OC(c2ccc(Cl)cc2)=C(c2ccc(S(N)(=O)=O)cc2)C1=O` [1v, 5-(4′-Chlorophenyl)-2,2-dimethyl-4-[4′-(aminosulfonyl)phenyl]-furan-3(2H)-one], the IC50 [2] was 20 µM, the melting point was 224 to 225 °C and the IC50 [3] was 28 µM. The inhibition in vivo at 0.1 µmol/g [1, 8] was 44.3%.

Work on `CNS(=O)(=O)c1ccc(C2=C(c3ccc(Cl)cc3)OC(C)(C)C2=O)cc1` [1vMe, 5-(4′-Chlorophenyl)-2,2-dimethyl-4-[4′-(methylaminosulfonyl)phenyl]-furan-3(2H)-one] yielded a melting point of 204 to 205 °C.

`CC1(C)OC(c2ccc(F)cc2)=C(c2ccc(S(N)(=O)=O)cc2)C1=O` [1w, 5-(4′-Fluorophenyl)-2,2-dimethyl-4-[4′-(aminosulfonyl)phenyl]-furan-3(2H)-one] showed an IC50 [2] greater than 50 µM, a melting point of 167 to 169 °C and an IC50 [3] of 70 µM. For the same molecule, the inhibition in vivo at 0.1 µmol/g [1, 8] was 43.7%.

With `O=c1[nH]cc(F)c(=O)[nH]1` [5-Fluorouracil, reference compound] the IC50 [4] was 0.03 µM.

With `Cc1ccc(-c2cc(C(F)(F)F)nn2-c2ccc(S(N)(=O)=O)cc2)cc1` [Celecoxib, reference compound] the IC50 [4] was 29.2 µM, the IC50 ([4]; Homo sapiens, MCF7, 48 h) was 29.2 µM and the “anti-inflammatory activity, reference compounds” value [1] was 64.6%. The “Combination Effect with 5-fluorouracil” value [5] was “antagonism”, the “% Cell Growth, combination with 5-fluorouracil” value [5] was 49.3% and the “CI, combination with 5-fluorouracil” value [5] was 1.57. The “CI, combination with 5-fluorouracil” value ([5]; listed as cel) was greater than 1, the “Combination Effect with gefitinib” value [5] was “antagonism” and the “% Cell Growth, combination with gefitinib” value [5] was 56.8%. The “CI, combination with gefitinib” value [5] was 9.8 and the “CI, combination with gefitinib” value ([5]; listed as cel) was greater than 1.

With `CC1(C)OC(c2ccc(S(C)(=O)=O)cc2)=C(c2ccccc2)C1=O` [E-1, reference compound] the inhibition in vivo at 0.1 µmol/g [1, 8] was 57.7%.

Work on `CC1(C)OC(c2ccc(S(C)(=O)=O)cc2)=C(c2cccc(Cl)c2)C1=O` [E-3, reference compound] yielded an inhibition in vivo at 0.1 µmol/g [1, 8] of 52.1%.

In the case of `COc1ccc2cc([C@H](C)C(=O)O)ccc2c1` [Naproxen, reference compound], the IC50 [2] is reported as 50 µM.

For `COc1ccc2c(c1)c(CC(=O)O)c(C)n2C(=O)c1ccc(Cl)cc1` [indomethacin, reference compound], the “anti-inflammatory activity, reference compounds” value [1] was 47%.

With `CC1(C)Oc2c(c3ccc(S(C)(=O)=O)cc3c3ccccc23)C1=O` [x-1, 2′,2′-dimethyl-3-(methylsulfonyl)-phenanthro[9,10-b]furan-3′(2′H)-one] the IC50 ([4]; Homo sapiens, MCF7, 48 h) was 10 µM, the “Combination Effect with celecoxib” value ([6]; + 29 μM cel) was “antagonism” and the “% Cell Growth, combination with celecoxib” value ([6]; + 29 μM cel (21.3 μM 1h, 2.9 μM 1g, 3.8 μM x-1)) was 60.6%. For the same molecule, the “CI, combination with celecoxib” value ([6]; + 29 μM cel, CI <1 synergy, >1 antagonism) was greater than 1, the “HSC-3 % Cell Growth” value ([7]; Compound concentration: 10μΜ) was 91 ± 10% and the IC50 ([7]; Homo sapiens, HSC-3, 48 h, read-out: HSC-3 IC50 Values) was 60 µM. For the same molecule, the melting point was 222 to 224 °C, the inhibition in vivo at 0.1 µmol/g [1] was 45% and the “Combination Effect with 5-fluorouracil” value [5] was “antagonistic effect; also recorded: antagonism”. For the same molecule, the “% Cell Growth, combination with 5-fluorouracil” value [5] was 21.0%, the “CI, combination with 5-fluorouracil” value [5] was greater than 1 and the “Combination Effect with gefitinib” value [5] was “synergism”. For the same molecule, the “% Cell Growth, combination with gefitinib” value [5] was 24.3%, the “CI, combination with gefitinib” value [5] was 0.260 ± 0.033 < 1 and the “CI, combination with gefitinib” value ([5]; listed as X-1) was 0.260.

With `CC1(C)Oc2c(c3ccc(S(C)(=O)=O)cc3c3cc(F)ccc23)C1=O` [x-2, 3-Fluoro-2′,2′-dimethyl-6-(methylsulfonyl)-phenanthro[9,10-b]furan-3′(2′H)-one] the melting point was 242 to 244 °C and the inhibition in vivo at 0.1 µmol/g [1] was 40%.
